From patent EP0196515A1, “Photodynamic inactivation of virus in therapeutic protein compositions” (BAXTER TRAVENOL LABORATORIES, INC., priority 1985, dated 1986) come the findings set out here.

Test [1] concerns Vesicular stomatitis virus. The test can be described thus: microbe, parasite or virus in culture. The test is classed as cell-based. The settings on record: read-out: logs of marker virus inactivated.
Another test deals with Sindbis. As to the kind of experiment: microbe, parasite or virus in culture. In kind it is cell-based. The note with it: read-out: logs of marker virus inactivated.
Another test deals with Herpes Simplex virus. The test can be described thus: Photodynamic virus inactivation, plaque assay of virus infectivity. The note with it: AHF products; chlorpromazine 1 X 10^-4M; light for less than ten minutes; read-out: logs of marker virus inactivated. The test is classed as cell-based.
Test [2] deals with LAV reverse transcriptase. The test can be described thus: Photodynamic inactivation of LAV seeded into AHF, reverse transcriptase assay. The settings on record: AHF seeded with LAV, Chlorpromazine 1 X 10^-4M, unfiltered Mercury Arc Lamp. The test is classed as biochemical. As for the experimental part: The following data supports photodynamic inactivation of LAV using indirect methods. AHF was seeded with LAV virus. In the first set of data, Protoporphyrin was added at a concentration of 5 X 10^-6M. The mixture was exposed to light ffrom a 65 watt Super Diazo Blue lamp at a distance of 10 cm. Albumin was added to the samples after inactivation to inhibit any inactivation from extraneous light. The product was lyophilized and subjected to a reverse transcriptase assay.
In the second set of data, LAV was seeded into an AHF composition. Chlorpromazine (1 X 10^-4M) was added as a photosensitize and the mixture was exposed to unfiltered light from an 85 watt high pressure mercury arc lamp at a distance of 10 cm. The product was lyophilized and analyzed for reverse transcriptase activity. Results are reported in counts per minute.

In another test the target is T1, Factor VIII (Homo sapiens, UniProt P00451).
T1 sequence (P00451 20-1332 limits assumed): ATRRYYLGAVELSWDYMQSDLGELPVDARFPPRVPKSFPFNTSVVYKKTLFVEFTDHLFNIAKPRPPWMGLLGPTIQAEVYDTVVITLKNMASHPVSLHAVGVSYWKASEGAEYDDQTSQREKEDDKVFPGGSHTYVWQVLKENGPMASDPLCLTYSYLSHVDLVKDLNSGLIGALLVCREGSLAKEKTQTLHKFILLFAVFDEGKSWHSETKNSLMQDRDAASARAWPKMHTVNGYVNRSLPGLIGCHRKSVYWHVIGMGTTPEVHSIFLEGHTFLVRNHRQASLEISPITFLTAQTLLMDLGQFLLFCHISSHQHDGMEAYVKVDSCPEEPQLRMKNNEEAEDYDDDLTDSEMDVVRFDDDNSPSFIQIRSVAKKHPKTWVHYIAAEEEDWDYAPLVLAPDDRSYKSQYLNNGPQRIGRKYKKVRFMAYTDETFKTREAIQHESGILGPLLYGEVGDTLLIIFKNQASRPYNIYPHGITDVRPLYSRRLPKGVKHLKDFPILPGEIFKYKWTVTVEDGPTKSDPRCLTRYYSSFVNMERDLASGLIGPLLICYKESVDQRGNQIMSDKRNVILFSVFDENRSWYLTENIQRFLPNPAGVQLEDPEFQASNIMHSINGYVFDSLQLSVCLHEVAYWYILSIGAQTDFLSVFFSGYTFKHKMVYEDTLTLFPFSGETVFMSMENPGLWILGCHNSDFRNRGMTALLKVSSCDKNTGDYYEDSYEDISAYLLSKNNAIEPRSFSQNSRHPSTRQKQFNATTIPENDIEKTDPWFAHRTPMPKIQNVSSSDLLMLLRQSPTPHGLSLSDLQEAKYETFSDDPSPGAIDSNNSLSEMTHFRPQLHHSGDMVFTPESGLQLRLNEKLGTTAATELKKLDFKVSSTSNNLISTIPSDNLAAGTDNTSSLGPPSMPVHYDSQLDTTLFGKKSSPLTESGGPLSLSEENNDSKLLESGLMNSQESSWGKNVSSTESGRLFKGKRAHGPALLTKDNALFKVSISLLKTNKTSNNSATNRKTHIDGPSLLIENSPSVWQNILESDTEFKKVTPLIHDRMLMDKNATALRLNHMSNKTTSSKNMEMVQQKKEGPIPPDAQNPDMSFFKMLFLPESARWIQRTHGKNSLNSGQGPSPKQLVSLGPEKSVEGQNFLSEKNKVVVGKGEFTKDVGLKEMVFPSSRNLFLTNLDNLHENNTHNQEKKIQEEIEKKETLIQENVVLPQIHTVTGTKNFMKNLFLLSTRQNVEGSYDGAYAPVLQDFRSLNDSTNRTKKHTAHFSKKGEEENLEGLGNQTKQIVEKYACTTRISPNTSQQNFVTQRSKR
T1 sequence (P00451 1668-2351 limits assumed): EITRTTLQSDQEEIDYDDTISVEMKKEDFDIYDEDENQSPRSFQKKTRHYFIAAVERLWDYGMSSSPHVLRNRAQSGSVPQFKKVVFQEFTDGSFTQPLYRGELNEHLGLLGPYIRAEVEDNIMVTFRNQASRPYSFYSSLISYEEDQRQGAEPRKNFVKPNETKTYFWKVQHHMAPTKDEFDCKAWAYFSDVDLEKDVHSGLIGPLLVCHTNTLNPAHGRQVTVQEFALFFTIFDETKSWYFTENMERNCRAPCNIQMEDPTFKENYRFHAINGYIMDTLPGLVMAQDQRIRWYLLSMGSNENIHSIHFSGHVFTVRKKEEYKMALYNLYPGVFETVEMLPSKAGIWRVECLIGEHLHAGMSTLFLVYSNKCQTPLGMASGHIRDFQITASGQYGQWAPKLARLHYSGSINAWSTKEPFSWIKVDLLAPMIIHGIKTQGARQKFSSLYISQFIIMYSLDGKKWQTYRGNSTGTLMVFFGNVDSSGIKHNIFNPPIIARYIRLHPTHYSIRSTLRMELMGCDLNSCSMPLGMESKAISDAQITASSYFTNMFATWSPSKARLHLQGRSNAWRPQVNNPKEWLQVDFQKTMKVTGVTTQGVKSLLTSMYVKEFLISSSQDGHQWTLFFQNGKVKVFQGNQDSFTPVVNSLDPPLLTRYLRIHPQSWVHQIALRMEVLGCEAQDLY
As to the kind of experiment: Factor VIII C activity, one-stage activated partial thromboplastin time assay (AHF product after photosensitizer and light).

The mark [3] stands for this setting: Chlorpromazine 1x10^-4M, Mercury Arc Lamp, Sensitizer added-10 min light.
Setting [4] is: Chlorpromazine 1x10^-5M, Mercury Arc Lamp, Sensitizer added-10 min light.
[5] abbreviates: Chlorpromazine 1x10^-5M, Mercury Arc Lamp, Sensitizer added-20 min light.

Source text for Factor VIII: The mixture was then exposed to light of a defined wavelength for a specified period of time.
Several light sources were used. A U.V. light source derived from a high pressure mercury vapor quartz lamp (85 watts) was employed. This source provided a wide band of light in the 390 to 410 nm range. A filter was used to remove the radiation below 350 nm in wave length. Alternatively a super diazo blue fluorescent lamp was used which has a peak emission near the absorption peak of the porphyrins employed.
Factor VIII C and Factor IX activity was determined by the one-stage activated partial thromboplastin time assay using Kaolin as an activator and human Factor VIII or Factor IX deficient plasma as a substrate. […] It involves the addition of the test sample to Factor VIII or Factor IX deficient plasma and measuring the degree of correction of the clotting time. This is then compared to a curve constructed using various dilutions of a lyophilized concentrate (reference) of known potency. […] Both sample and refernce are prediluted in Factor VIII deficient substrate plasma to an approximate activity of 1 U/mL. From the percentage of the reference, the potency can be estimated.

On to `CN(C)CCCN1c2ccccc2Sc2ccc(Cl)cc21` [Chlorpromazine, 10-(3-dimethyl-aminopropyl)-2-chlorphenothiazine], for which the log reduction at 100 µM (in test [1]; in the test on Sindbis; in the test with Herpes Simplex virus) was over 5 each time. The “C.P.M. (reverse transcriptase activity)” value in test [2] (exposure 0 minutes) is 36,192 C.P.M; in test [2] (exposure 5 minutes), 27,100 C.P.M; in test [2] (exposure 10 minutes) it was 6,814 C.P.M; in test [2] (exposure 20 minutes), 4,742 C.P.M. Further, the “% Change (Ref: Bulk), Percent change in Factor VIII coagulant activity” value was -29% on Factor VIII (setting [3]), -23% on Factor VIII (setting [4]) and -43% on Factor VIII (setting [5]). Further, the Units/ml on Factor VIII (setting [3]) is on record as 20.0 Units/ml; on Factor VIII (Chlorpromazine 1x10^-4M, Sensitizer added-no light), 27.3 Units/ml; on Factor VIII (setting [4]), 24.8 Units/ml; on Factor VIII (setting [5]), 18.2 Units/ml; at Factor VIII (Chlorpromazine 1x10^-5M, Sensitizer added-no light), 30.1 Units/ml.
